Laboratory results taken from patent publication EP4702986A1, “POLYPEPTIDE AND USE THEREOF” (Biocells (Beijing) Biotech Co., Ltd., priority 2023, dated 2024).
Numbered stars: 1 amine (or outer) side, 2 acyl side, 3 side chain; on linkers, the order of the positions; unused ones are H or OH. Side chains are listed from the residue outwards. Ends that are not written are not given here. Peptide text beside a SMILES is read from it. * marks the point of attachment. X1 = C[C@H](NC(=O)[C@@H]1CCCN1C(=O)[C@@H](N)CSC1CC(=O)N(CCC(=O)*)C1=O)C(=O)N[C@@H](CCCCN)C(=O)O; γGlu = O=C(O)[C@H](CCC(=O)[*:2])N[*:1]; Fumaroyl = O=C(O)/C=C/C(=O)*; Suc = O=C(CCC(=O)[*:2])[*:1]; Lauroyl = CCCCCCCCCCCC(=O)*; AEEA = NCCOCCOCC(=O)O

Assays:
rat ETB receptor = biological target: T1, rat ETB receptor (Rattus norvegicus, UniProt P21451); assay: Determination of EC50s of polypeptides against rat ETB receptor; type: cell-based; settings: Table 8, rat ETB receptor; for EC50: read-out: DETAR Agonist Activity EC50
T1 construct: expressed in transfected cells
T1 sequence (P21451 27-442): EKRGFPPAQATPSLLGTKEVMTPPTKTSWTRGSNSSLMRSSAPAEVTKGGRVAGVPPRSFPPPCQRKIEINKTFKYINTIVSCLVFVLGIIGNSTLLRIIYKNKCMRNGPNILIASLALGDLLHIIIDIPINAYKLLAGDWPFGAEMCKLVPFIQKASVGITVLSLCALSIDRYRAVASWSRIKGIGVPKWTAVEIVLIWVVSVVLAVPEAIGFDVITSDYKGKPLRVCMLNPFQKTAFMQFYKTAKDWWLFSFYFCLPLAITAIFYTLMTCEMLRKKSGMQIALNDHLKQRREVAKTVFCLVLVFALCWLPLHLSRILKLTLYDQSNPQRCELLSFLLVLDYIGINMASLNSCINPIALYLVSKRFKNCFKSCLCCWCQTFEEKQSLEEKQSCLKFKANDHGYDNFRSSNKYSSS
Procedure: 293T-17 cells were seeded at a density of 650,000 cells per well in a 6-well plate and cultured overnight in an incubator at 37°C and 5% CO2. Afterward, the cells were transfected with an expression vector, PCDNA3.1-hETB which contained a human ETB receptor gene, at a plasmid concentration of 2.5 µg per well. The cells were further cultured for 48 hours, and green fluorescence expression was observed under a fluorescence microscope. The cells were then digested with trypsin and counted. The activity of compounds on the human ETB receptor was determined with the IP-One Gq kit from Cisbio Bioassays. The cells were suspended in Stim Buffer provided in the kit and the cell suspension was added to a 96-well detection plate at 7 µL cell suspension (containing 30,000 cells) per well. The polypeptides to be tested (prepared according to the Preparation Example of the invention) were diluted in Stim B to obtain a gradient of 11 concentration points. For each concentration point, the polypeptides to be tested were dissolved in Stim B to be at a concentration of 2×, and added at 7 µL to the test cells, while 7 µL of PBS solution was added to the cells in the negative control wells. The plate was sealed and incubated at 37°C for 1 hour in a cell culture incubator. Detection wells, positive control wells containing human endothelin ET1 (ET1: […] (C1-C15,C3-C11)), and PBS control wells were each added with 3 µL of IP1 d2 working solution and 3 µL of IP1 Tb cryptotate Antibody working solution. The plate was then sealed and incubated in the dark at room temperature (25°C±5°C) for 1 hour. The plate seal was removed, and the […] at 665 nm and 620 nm was measured with an ID5 microplate reader. The ratio of the acceptor emission signal to the donor emission signal, i.e., (signal at 665 nm/signal at 620 nm)×10^4, was calculated for each well. With F representing the average value of values of signal at 665 nm/signal at 620 nm for the test samples at various concentrations, a scatterplot was plotted, where the abscissa represented the F value, and the ordinate represented the logarithmic value of the peptide concentration. A curve was fitted with an appropriate method to calculate EC50 values of the polypeptides against the human ETB receptor. Another method was provided for fitting a curve where activation rate of the test polypeptides at each concentration relative to the positive control sample human endothelin ET1 was calculated first with the method in Example 1, and a scatterplot was plotted, where the abscissa represented the activation rate, and the ordinate represented the logarithmic value of the polypeptide concentration. A curve was fitted with an appropriate method to calculate the EC50 values of the polypeptides against the human ETB receptor.
The process is the same as that in Example 3, except that the transfected plasmid was expression vector PCDNA3.1-RETB which contained a rat ETB receptor gene. EC50 values of the polypeptides against the rat ETB receptor were calculated (see Figures 11-13). The sequence of the rat ETB receptor (NCBI accession number: X57764.1).

rat model of pMACO [1] = assay: mRS-6 scoring in rat model of pMACO; type: in vivo, SD rats; design: mRS-7D / mRS-14D / mRS-21D / mRS-30D: scale not given here; settings: for mRS-7D: day 7; for mRS-14D: day 14; for mRS-21D: day 21; for mRS-30D: day 30
Source text: (§1) Male SD rats, weighing 280-300 g, were used and acclimatized for at least 3 days. Focal cerebral ischemia was induced by middle cerebral artery occlusion with a suture method under isoflurane anesthesia. The animals were placed in a supine position, a midline incision was made, and the right common carotid artery, external carotid artery, and internal carotid artery were exposed. A 4.0 monofilament nylon suture was advanced from the external carotid artery toward the internal carotid artery lumen until resistance was felt (~20 mm), indicating middle cerebral artery occlusion. The nylon filament was allowed to stay in place to create a permanent model of focal cerebral ischemia. The day of modeling was defined as D1, the next day as D2, and so on. Since the experiment was not be completed in a single batch, and in order to prevent accidental errors, all operations in this experiment had to follow the principle of parallel operation, i.e., the experiment on each day needed to include animals from each group. Sequential numbering for surgical modeling was obtained by sorting the animals according to their body weight before the experiment. After the surgery, successfully modeled pMCAO rats were randomly assigned into a model group and various treatment groups. The detailed grouping of the experiment was as follows: (1) 15 rats in the 5 µg/Kg IRL1620 group with 9 administrations over 3 days; (2) 15 rats in the 6.6 µg/Kg BX225 group with 9 administrations over 3 days; (3) 15 rats in the 19.8 µg/Kg BX225 group with 3 administrations over 3 days; (4) 15 rats in the model (normal saline) group; and (5) 6 rats in the sham group (the sham group underwent the same procedure without vascular ligation and suture insertion). The administration was performed via tail vein injection (iv) with an administration volume of 2 mL/kg. The first administration was 2 hours after the surgery. Administration frequencies were single and multiple administrations per day according to the experimental design. Administrations were performed on D1, D3, and D6, respectively, as detailed in Table 22. The model group and the sham group were given the same volume of vehicle normal saline.

rat model of pMACO [2] = assay: Garcia JH scoring in rat model of pMACO; type: in vivo, SD rats; design: 5 min Spontaneous Activity / Body Symmetry / Forelimb Extension Movement / Cage Climbing / Body Tactile Response on Both Sides / Beard Touch Reaction on Both Sides / Total Score: scale not given here; settings: for 5 min Spontaneous Activity / Beard Touch Reaction on Both Sides / Body Symmetry / Body Tactile Response on Both Sides / Cage Climbing / Forelimb Extension Movement / Total Score: Garcia JH score
Source text: as §1

[3] = 3Time regimen: IRL1620 5 µg/Kg, BX225 6.6 µg/Kg
[4] = pMCAO rats, 6.6 µg/Kg three-dose group, iv
[5] = Day 21, 19.8 µg/Kg, 1Time regimen
[6] = Day 21, 3Time regimen: IRL1620 5 µg/Kg, BX225 6.6 µg/Kg
[7] = Day 30, 19.8 µg/Kg, 1Time regimen
[8] = Day 30, 3Time regimen: IRL1620 5 µg/Kg, BX225 6.6 µg/Kg

## CCCCCCCCCCCC(=O)N[C@@H](CCC(=O)NCCOCCOCC(=O)NCCCC[C@H](NC(=O)[C@H](Cc1c[nH]cn1)NC(=O)[C@H](C)NC(=O)[C@H](Cc1ccccc1)NC(=O)[C@H](Cc1ccc(O)cc1)NC(=O)[C@@H](NC(=O)[C@H](C)NC(=O)[C@H](CCC(=O)O)NC(=O)[C@H](CCC(=O)O)NC(=O)[C@H](CC(=O)O)NC(=O)/C=C/C(=O)O)C(C)C)C(=O)N[C@@H](CC(=O)O)C(=O)N[C@H](C(=O)N[C@H](C(=O)N[C@@H](Cc1c[nH]c2ccccc12)C(=O)O)[C@@H](C)CC)C(C)C)C(=O)O [BX229-Na] (Fumaroyl-DEEAVYFAHK([AEEA-γGlu-Lauroyl])DVIW-OH)
Rat ETB receptor
  EC50: 7.22 nM

## CC[C@H](C)[C@H](NC(=O)[C@H](CC(=O)O)NC(=O)[C@H](CCCCNC(=O)COCCOCCNC(=O)CCN1C(=O)CC(SC[C@H](N)C(=O)N2CCC[C@H]2C(=O)N[C@@H](C)C(=O)N[C@@H](CCCCN)C(=O)O)C1=O)NC(=O)[C@H](Cc1c[nH]cn1)NC(=O)[C@H](C)NC(=O)[C@H](Cc1ccccc1)NC(=O)[C@H](Cc1ccc(O)cc1)NC(=O)[C@@H](NC(=O)[C@H](C)NC(=O)[C@H](CCC(=O)O)NC(=O)[C@H](CCC(=O)O)NC(=O)[C@H](CC(=O)O)NC(=O)/C=C/C(=O)O)C(C)C)C(=O)N[C@H](C(=O)N[C@@H](Cc1c[nH]c2ccccc12)C(=O)O)[C@@H](C)CC (stereo partly shown) [BX-95] (Fumaroyl-DEEAVYFAHK([AEEA-X1])DIIW-OH)
Rat ETB receptor
  EC50: 24 nM

## CCCCCCCCCCCC(=O)N[C@@H](CCC(=O)NCCOCCOCC(=O)NCCCC[C@H](NC(=O)[C@H](Cc1c[nH]cn1)NC(=O)[C@H](C)NC(=O)[C@H](Cc1ccccc1)NC(=O)[C@H](Cc1ccc(O)cc1)NC(=O)[C@@H](NC(=O)[C@H](C)NC(=O)[C@H](CCC(=O)O)NC(=O)[C@H](CCC(=O)O)NC(=O)[C@H](CC(=O)O)NC(=O)/C=C/C(=O)O)C(C)C)C(=O)N[C@@H](CC(=O)O)C(=O)N[C@H](C(=O)N[C@H](C(=O)N[C@@H](Cc1c[nH]c2ccccc12)C(=O)O)[C@@H](C)CC)[C@@H](C)CC)C(=O)O [BX-225] (Fumaroyl-DEEAVYFAHK([AEEA-γGlu-Lauroyl])DIIW-OH)
Rat model of pMACO [1]; 19.8 µg/Kg, 1Time regimen
  mRS-7D: 3.14±2.14
  mRS-14D: 3.90±2.61
  mRS-21D: 3.73±2.81
  mRS-30D: 3.65±2.91
Rat model of pMACO [1]; [3]
  mRS-7D: 1.67±0.50
  mRS-14D: 1.17±0.50
  mRS-21D: 0.75±0.41
  mRS-30D: 0.50±0.31
Rat model of pMACO [1]; [4]
  mRS-6 score on day 14 compared with the normal saline group and the IRL1620 three-dose group: close to a significant difference
  mRS-6 scores, course from day 7, day 14, day 21, to day 30: continuous improvement
Rat model of pMACO [1]; pMCAO rats, 6.6 µg/Kg three-dose group, iv, P<0.05
  mRS-6 scores on days 7, 21, and 30 compared with the normal saline group and the IRL1620 three-dose group: significant differences
Rat model of pMACO [2]; [5]
  5 min Spontaneous Activity: 1.17±1.47
  Beard Touch Reaction on Both Sides: 1.63±0.80
  Body Symmetry: 0.63±0.80
  Body Tactile Response on Both Sides: 1.60±0.77
  Cage Climbing: 1.69± 0.85
  Forelimb Extension Movement: 0.80±1.01
  Total Score: 7.51± 5.58
Rat model of pMACO [2]; [6]
  5 min Spontaneous Activity: 2.89±0.33
  Beard Touch Reaction on Both Sides: 2.70±0.25
  Body Symmetry: 1.74±0.48
  Body Tactile Response on Both Sides: 2.50±0.23
  Cage Climbing: 2.30± 0.71
  Forelimb Extension Movement: 1.87±0.52
  Total Score: 13.99 ±1.49
Rat model of pMACO [2]; [7]
  5 min Spontaneous Activity: 1.25±1.54
  Beard Touch Reaction on Both Sides: 1.50±0.65
  Body Symmetry: 0.78±0.98
  Body Tactile Response on Both Sides: 1.46±0.59
  Cage Climbing: 1.79±0.98
  Forelimb Extension Movement: 0.93+1.15
  Total Score: 7.71± 5.82
Rat model of pMACO [2]; [8]
  5 min Spontaneous Activity: 3.00±0.00
  Beard Touch Reaction on Both Sides: 2.39±0.13
  Body Symmetry: 2.07±0.29
  Body Tactile Response on Both Sides: 2.29±0.18
  Cage Climbing: 2.81±0.15
  Forelimb Extension Movement: 2.25±0.23
  Total Score: 14.81 ±0.56
Rat model of pMACO [2]; [4]
  Garcia JH scores on days 21 and 30 compared with the normal saline group: statistical differences
  Garcia JH scores, course from day 7, day 14, day 21, to day 30: continuous improvement trend

## CC[C@H](C)[C@H](NC(=O)[C@H](CC(=O)O)NC(=O)[C@H](CC(C)C)NC(=O)[C@H](Cc1c[nH]cn1)NC(=O)[C@H](C)NC(=O)[C@H](Cc1ccccc1)NC(=O)[C@H](Cc1ccc(O)cc1)NC(=O)[C@@H](NC(=O)[C@H](C)NC(=O)[C@H](CCC(=O)O)NC(=O)[C@H](CCC(=O)O)NC(=O)[C@H](CC(=O)O)NC(=O)CCC(=O)O)C(C)C)C(=O)N[C@H](C(=O)N[C@@H](Cc1c[nH]c2ccccc12)C(=O)O)[C@@H](C)CC [IRL1620, reference compound] (Suc-DEEAVYFAHLDIIW-OH)
Rat model of pMACO [1]; [3]
  mRS-7D: 2.54±2.03
  mRS-14D: 2.77±2.66
  mRS-21D: 2.72±2.71
  mRS-30D: 2.52±2.87
Rat model of pMACO [2]; [6]
  5 min Spontaneous Activity: 1.77±1.48
  Beard Touch Reaction on Both Sides: 1.95±0.82
  Body Symmetry: 0.90±0.80
  Body Tactile Response on Both Sides: 1.79±0.70
  Cage Climbing: 2.03± 0.86
  Forelimb Extension Movement: 1.26±1.05
  Total Score: 9.70± 5.58

## Fum-DEEEVYFAHKDIIW (Fumaroyl-DEEEVYFAHKDIIW) [BX-52]
Rat ETB receptor; @10nM
  DETAR Agonist Activity, %: 22.36%@10n M
Rat ETB receptor; @100nM
  DETAR Agonist Activity, %: 389.09%@100 nM

## Fum-DEEEVYFAHOrnDIIW [BX-59]
Rat ETB receptor; @10nM
  DETAR Agonist Activity, %: 314.15%@10n M
Rat ETB receptor; @100nM
  DETAR Agonist Activity, %: 46.94%@100n M
